US20250101038A1, “COMPOUNDS” (priority 2021, published 2025)
Where two headings read alike, the source gives them in different places.

Columns and labels:
5-HT2B receptor = biological target: T1, 5-HT2B receptor (Homo sapiens, UniProt P41595); test: cell-based
T1 construct: host or cells: CHO-K1

5-HT2A receptor = biological target: T2, 5-HT2A receptor (Homo sapiens, UniProt P28223); test: FLIPR Ca2+ flux functional assay, 5-HT2A; format: cell-based
T2 construct: host or cells: HEK293

5-HT2C receptor = biological target: T3, 5-HT2C receptor (Homo sapiens, UniProt P28335); test: cell-based
T3 construct: host or cells: HEK293
T3 sequence (P28335 33-458): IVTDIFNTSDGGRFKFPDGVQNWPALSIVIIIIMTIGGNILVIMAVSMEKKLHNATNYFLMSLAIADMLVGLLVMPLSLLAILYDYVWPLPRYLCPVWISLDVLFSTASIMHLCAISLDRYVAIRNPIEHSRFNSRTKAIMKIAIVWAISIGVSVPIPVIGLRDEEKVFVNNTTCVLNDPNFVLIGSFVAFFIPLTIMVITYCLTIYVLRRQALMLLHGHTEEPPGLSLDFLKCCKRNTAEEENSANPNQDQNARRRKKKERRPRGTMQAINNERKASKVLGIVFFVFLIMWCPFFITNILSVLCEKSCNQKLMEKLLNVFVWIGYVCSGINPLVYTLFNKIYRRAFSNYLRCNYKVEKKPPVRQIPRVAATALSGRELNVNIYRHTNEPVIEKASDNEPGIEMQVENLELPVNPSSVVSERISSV

[1] = agonist activity, Ca2+ flux, CHO-K1 cells
[2] = agonist activity, Ca2+ flux, CHO-K1 cells, read-out: 5-HT2B EC50
[3] = agonist activity, Ca2+ flux, HEK293 cells
[4] = agonist activity, Ca2+ flux, HEK293 cells, read-out: 5-HT2A EC50
[5] = agonist activity, Ca2+ flux, HEK293 cells, read-out: 5-HT2C EC50

T2 sequence (P28223 whole entry): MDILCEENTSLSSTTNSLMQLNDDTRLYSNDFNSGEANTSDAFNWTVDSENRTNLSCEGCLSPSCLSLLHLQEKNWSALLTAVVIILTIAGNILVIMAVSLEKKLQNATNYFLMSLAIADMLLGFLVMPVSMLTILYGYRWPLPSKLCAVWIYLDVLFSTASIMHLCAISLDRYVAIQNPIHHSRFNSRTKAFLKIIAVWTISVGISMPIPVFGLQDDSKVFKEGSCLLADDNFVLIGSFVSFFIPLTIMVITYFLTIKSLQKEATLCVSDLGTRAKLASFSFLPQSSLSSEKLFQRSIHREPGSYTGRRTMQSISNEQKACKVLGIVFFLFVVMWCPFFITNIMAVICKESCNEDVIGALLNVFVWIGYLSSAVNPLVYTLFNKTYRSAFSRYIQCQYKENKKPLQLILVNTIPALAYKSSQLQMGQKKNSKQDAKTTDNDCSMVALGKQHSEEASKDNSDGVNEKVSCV
T1 sequence (P41595 whole entry): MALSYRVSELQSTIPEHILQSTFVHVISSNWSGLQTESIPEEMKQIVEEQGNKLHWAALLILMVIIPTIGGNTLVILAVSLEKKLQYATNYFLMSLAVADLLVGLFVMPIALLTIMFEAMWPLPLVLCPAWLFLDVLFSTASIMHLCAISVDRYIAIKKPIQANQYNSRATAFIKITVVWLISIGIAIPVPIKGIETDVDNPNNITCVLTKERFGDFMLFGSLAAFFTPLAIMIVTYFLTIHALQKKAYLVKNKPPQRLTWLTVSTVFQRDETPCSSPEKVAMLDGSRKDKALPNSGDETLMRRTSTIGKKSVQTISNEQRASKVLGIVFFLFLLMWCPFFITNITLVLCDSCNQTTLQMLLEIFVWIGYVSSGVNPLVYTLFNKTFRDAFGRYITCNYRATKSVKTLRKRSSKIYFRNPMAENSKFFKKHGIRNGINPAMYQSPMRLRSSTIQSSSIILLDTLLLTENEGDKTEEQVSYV

Structure (SMILES) | Emax (5-HT2B receptor; [1]) [%] | EC50 (5-HT2B receptor; [2]) [µM] | Emax (5-HT2A receptor; [3]) [%] | EC50 (5-HT2A receptor; [4]) [µM] | Emax (5-HT2C receptor; [3]) [%] | EC50 (5-HT2C receptor; [5]) [µM] | EC50 (5-HT2B receptor) [µM] | EC50 (5-HT2A receptor) [µM] | EC50 (5-HT2C receptor) [µM]
CC(C)N(C)CCc1c[nH]c2ccc3ocnc3c12 [Example P-128, N-(2-(6H-oxazolo[4,5-e]indol-8-yl)ethyl)-N-methylpropan-2-amine] | 16.8 | > 10 | 83.8 | 0.0143 | 58 | 0.0678 |  |  | 
CCN(CC)CCc1c[nH]c2ccc3ocnc3c12 [Example P-129, N,N-diethyl-2-(6H-oxazolo[4,5-e]indol-8-yl)ethan-1-amine] | 41.1 |  | 64 |  | 93.1 |  | 0.0149 | 0.0144 | 0.0727
CC(C)N(CCc1c[nH]c2ccc3ocnc3c12)C(C)C [Example P-130, N-(2-(6H-oxazolo[4,5-e]indol-8-yl)ethyl)-N-isopropylpropan-2-amine] | 114 | 0.00754 | 87.5 | 0.0181 | 104 | 0.203 |  |  | 
Cc1nc2c(ccc3[nH]cc(CCN(C)C)c32)o1 [Example P-131, N,N-dimethyl-2-(2-methyl-6H-oxazolo[4,5-e]indol-8-yl)ethan-1-amine] | 3.93 |  | 97.2 |  | 90.1 |  | > 10 | 0.0106 | 0.0158
CCN(C)CCc1c[nH]c2ccc3oc(C)nc3c12 [Example P-132, N-ethyl-N-methyl-2-(2-methyl-6H-oxazolo[4,5-e]indol-8-yl)ethan-1-amine] | 11.4 |  | 69.1 |  | 85.7 |  | > 10 | 0.0206 | 0.177
Cc1nc2c(ccc3[nH]cc(CCN(C)C(C)C)c32)o1 [Example P-133, N-methyl-N-(2-(2-methyl-6H-oxazolo[4,5-e]indol-8-yl)ethyl)propan-2-amine] | 22.4 | 0.0686 | 78.4 | 0.0279 | 72.6 | 0.894 |  |  | 
CCN(CC)CCc1c[nH]c2ccc3oc(C)nc3c12 [Example P-134, N,N-diethyl-2-(2-methyl-6H-oxazolo[4,5-e]indol-8-yl)ethan-1-amine] | 56.4 |  | 77.5 |  | 91.3 |  | 0.0599 | 0.0203 | 0.429
Cc1nc2c(ccc3[nH]cc(CCN(C(C)C)C(C)C)c32)o1 [Example P-135, N-isopropyl-N-(2-(2-methyl-6H-oxazolo[4,5-e]indol-8-yl)ethyl)propan-2-amine] | 91.3 | 0.0314 | 78.3 | 0.0251 | 99.2 | 2.07 |  |  | 
CN(C)CCc1c[nH]c2ccc(F)c(F)c12 [Example P-142, 2-(4,5-difluoro-1H-indol-3-yl)-N,N-dimethylethan-1-amine] | 2.92 |  | 70 |  | 118 |  |  |  | 
CCN(CC)CCc1c[nH]c2ccc(F)c(F)c12 [Example P-145, 2-(4,5-difluoro-1H-indol-3-yl)-N,N-diethylethan-1-amine] | 51.5 | 0.0233 | 98.5 | 0.0106 | 72.3 | 0.102 |  |  | 
CC(C)N(CCc1c[nH]c2ccc(F)c(F)c12)C(C)C [Example P-146, N-(2-(4,5-difluoro-1H-indol-3-yl)ethyl)-N-isopropylpropan-2-amine] | 155 | 0.0214 | 98.4 | 0.0101 | 93.1 | 0.0254 |  |  | 
CN(C)CCc1c[nH]c2cc(F)cc(F)c12 [Example P-147, 2-(4,6-difluoro-1H-indol-3-yl)-N,N-dimethylethan-1-amine] | 15.3 | ≥ 10 | 91.6 | 0.0292 | 15.3 |  |  |  | 
CCN(C)CCc1c[nH]c2cc(F)cc(F)c12 [Example P-148, 2-(4,6-difluoro-1H-indol-3-yl)-N-ethyl-N-methylethan-1-amine] | 35.6 | ≥ 10 | 78.9 | 0.0514 | 35.6 |  |  |  | 
CC(C)N(C)CCc1c[nH]c2cc(F)cc(F)c12 [Example P-149, N-(2-(4,6-difluoro-1H-indol-3-yl)ethyl)-N-methylpropan-2-amine] | 30.1 | ≥ 10 | 66.8 | 0.0524 | 30.1 |  |  |  | 
CN(C)CCc1c[nH]c2cc(F)c(F)cc12 [Example P-153, 2-(5,6-difluoro-1H-indol-3-yl)-N,N-dimethylethan-1-amine] | 10.6 | > 10 | 74.8 | 0.0295 | 93.6 | 0.00535 |  |  | 
CCN(C)CCc1c[nH]c2cc(F)c(F)cc12 [Example P-154, 2-(5,6-difluoro-1H-indol-3-yl)-N-ethyl-N-methylethan-1-amine] | 17.6 | ≥ 10 | 92.4 | 0.0148 | 102 | 0.0249 |  |  | 
CC(C)N(C)CCc1c[nH]c2cc(F)c(F)cc12 [Example P-155, N-(2-(5,6-difluoro-1H-indol-3-yl)ethyl)-N-methylpropan-2-amine] | 45.4 | ≥ 10 | 73.4 | 0.0104 | 83.7 | 0.0507 |  |  | 
CN(C)CCc1c[nH]c2c(F)cc(F)cc12 [Example P-156, 2-(5,7-difluoro-1H-indol-3-yl)-N,N-dimethylethan-1-amine] | -4.13 | > 10 | 48 | 0.0411 | 85.2 | 0.0113 |  |  | 
CN(C)CCc1c[nH]c2c(F)c(F)ccc12 [Example P-159, 2-(6,7-difluoro-1H-indol-3-yl)-N,N-dimethylethan-1-amine] | 3.79 | > 10 | 62 | 0.0286 | 99.3 | 0.0365 |  |  | 
CC(C)N(C)CCc1c[nH]c2c(F)c(F)ccc12 [Example P-161, N-(2-(6,7-difluoro-1H-indol-3-yl)ethyl)-N-methylpropan-2-amine] | 1.6 | > 10 | 48 | 0.0548 | 80.9 | 0.418 |  |  | 
